Measured values taken from patent US11447466B2, “Substituted indole compounds useful as inhibitors of TLR7/8/9” (BRISTOL-MYERS SQUIBB COMPANY, priority 2017, dated 2022).

Experiments:
Type in all cases: cell-based
[1] = biological target: T1, human TLR8 (Homo sapiens, UniProt Q9NR97); test: TLR8 inhibition reporter assay (HEK-Blue SEAP reporter, R848 stimulation); conditions: HEK-Blue cells overexpressing human TLR8, SEAP reporter, R848 15.9 μM, 22 hour incubation
T1 construct: host or cells: HEK-Blue cells
T1 sequence (Q9NR97 27-1041): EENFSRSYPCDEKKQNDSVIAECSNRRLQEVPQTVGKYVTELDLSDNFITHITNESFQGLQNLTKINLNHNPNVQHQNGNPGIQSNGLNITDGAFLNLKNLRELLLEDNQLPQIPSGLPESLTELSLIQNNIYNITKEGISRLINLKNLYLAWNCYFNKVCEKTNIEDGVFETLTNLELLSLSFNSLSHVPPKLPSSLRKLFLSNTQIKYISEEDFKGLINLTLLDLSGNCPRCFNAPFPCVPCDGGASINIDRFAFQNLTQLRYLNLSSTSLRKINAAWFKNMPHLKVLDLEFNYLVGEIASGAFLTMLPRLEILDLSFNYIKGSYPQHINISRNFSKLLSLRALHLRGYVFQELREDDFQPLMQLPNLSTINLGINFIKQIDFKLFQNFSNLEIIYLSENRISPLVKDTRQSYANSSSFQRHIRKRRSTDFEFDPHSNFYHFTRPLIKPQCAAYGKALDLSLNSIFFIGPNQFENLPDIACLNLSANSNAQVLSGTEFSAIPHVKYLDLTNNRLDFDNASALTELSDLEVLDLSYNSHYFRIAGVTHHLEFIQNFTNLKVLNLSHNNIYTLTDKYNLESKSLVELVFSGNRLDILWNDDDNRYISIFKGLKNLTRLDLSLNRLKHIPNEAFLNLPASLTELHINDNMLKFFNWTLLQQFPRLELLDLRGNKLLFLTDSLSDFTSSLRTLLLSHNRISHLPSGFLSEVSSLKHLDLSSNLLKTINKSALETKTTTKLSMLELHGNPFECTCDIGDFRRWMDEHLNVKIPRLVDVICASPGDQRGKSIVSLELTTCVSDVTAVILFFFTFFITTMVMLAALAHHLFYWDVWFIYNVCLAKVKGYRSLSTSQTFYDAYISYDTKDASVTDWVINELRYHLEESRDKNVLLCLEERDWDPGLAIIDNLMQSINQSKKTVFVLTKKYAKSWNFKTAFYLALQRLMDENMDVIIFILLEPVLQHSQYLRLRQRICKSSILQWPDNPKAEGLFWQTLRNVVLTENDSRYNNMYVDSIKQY
Procedure, shortened: (§1)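 Dose–response from 0.05 nM to 50 μM was run in HEK-Blue human TLR7, TLR8 and TLR9 reporter cells. After 30 min at room temperature with compound, ligand was added (TLR7 gardiquimod 7.5 μM; TLR8 R848 15.9 μM; TLR9 ODN2006 5 nM) and SEAP measured next day, at 22 h.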

[2] = biological target: T2, human TLR7 (Homo sapiens, UniProt Q9NYK1); test: TLR7 inhibition reporter assay (HEK-Blue SEAP reporter, gardiquimod stimulation); conditions: HEK-Blue cells overexpressing human TLR7, SEAP reporter, gardiquimod 7.5 μM, 22 hour incubation
T2 construct: host or cells: HEK-Blue cells
T2 sequence (Q9NYK1 27-1049): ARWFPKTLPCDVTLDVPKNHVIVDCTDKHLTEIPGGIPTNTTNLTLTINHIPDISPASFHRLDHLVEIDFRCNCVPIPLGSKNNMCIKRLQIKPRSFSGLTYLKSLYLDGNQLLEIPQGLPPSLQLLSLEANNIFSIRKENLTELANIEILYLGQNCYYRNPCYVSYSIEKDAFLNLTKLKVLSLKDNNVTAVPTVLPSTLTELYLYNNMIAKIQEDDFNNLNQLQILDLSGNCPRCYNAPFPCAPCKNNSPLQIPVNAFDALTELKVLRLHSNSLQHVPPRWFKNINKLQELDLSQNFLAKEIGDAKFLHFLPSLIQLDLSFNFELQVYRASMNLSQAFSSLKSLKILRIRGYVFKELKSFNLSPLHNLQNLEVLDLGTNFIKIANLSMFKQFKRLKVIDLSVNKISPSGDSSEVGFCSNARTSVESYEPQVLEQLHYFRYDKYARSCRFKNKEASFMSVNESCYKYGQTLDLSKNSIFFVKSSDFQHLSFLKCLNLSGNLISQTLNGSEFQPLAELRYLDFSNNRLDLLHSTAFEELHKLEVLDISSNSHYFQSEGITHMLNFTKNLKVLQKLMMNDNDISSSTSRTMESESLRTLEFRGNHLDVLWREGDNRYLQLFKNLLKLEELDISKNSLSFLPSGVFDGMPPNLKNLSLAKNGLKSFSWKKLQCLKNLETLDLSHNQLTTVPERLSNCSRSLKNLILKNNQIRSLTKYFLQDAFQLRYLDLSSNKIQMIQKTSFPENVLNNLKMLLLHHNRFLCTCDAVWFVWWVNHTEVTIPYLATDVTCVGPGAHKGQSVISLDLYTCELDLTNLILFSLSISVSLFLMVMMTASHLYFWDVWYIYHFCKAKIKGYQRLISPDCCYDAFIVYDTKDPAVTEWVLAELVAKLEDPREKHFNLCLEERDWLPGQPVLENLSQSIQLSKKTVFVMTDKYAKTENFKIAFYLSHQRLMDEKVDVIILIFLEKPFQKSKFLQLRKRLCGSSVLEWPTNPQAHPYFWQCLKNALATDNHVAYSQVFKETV
Procedure, shortened: as §1

[3] = biological target: T3, human TLR9 (Homo sapiens, UniProt Q9NR96); test: TLR9 inhibition reporter assay (HEK-Blue SEAP reporter, ODN2006 stimulation); conditions: HEK-Blue cells overexpressing human TLR9, SEAP reporter, ODN2006 5 nM, 22 hour incubation
T3 construct: host or cells: HEK-Blue cells
T3 sequence (Q9NR96 26-1032): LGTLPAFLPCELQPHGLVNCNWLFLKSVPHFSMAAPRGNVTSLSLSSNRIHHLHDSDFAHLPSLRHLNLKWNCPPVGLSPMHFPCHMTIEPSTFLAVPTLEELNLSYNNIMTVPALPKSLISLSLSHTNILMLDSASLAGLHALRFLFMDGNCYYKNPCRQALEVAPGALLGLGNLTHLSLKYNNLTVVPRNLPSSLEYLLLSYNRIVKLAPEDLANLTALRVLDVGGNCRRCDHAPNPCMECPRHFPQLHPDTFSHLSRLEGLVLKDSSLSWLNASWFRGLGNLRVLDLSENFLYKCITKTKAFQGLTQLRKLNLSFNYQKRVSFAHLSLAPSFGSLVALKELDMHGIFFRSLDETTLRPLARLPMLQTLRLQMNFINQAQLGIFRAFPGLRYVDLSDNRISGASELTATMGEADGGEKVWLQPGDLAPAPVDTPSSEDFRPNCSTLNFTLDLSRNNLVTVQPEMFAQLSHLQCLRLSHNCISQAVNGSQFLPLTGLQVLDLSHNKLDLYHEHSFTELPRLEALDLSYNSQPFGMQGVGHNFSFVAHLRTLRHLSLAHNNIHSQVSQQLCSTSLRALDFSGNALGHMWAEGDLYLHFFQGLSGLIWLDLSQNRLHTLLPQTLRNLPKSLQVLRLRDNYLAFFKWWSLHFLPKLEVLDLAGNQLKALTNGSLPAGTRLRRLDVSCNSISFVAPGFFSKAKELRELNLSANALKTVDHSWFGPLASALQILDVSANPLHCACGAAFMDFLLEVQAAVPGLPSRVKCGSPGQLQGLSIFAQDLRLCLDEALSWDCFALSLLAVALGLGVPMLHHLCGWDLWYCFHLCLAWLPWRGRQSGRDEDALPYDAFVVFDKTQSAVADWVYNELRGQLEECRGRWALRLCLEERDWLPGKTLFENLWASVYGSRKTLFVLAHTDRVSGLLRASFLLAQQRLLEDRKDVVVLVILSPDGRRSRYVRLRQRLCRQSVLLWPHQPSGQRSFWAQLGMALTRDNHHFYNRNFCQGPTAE
Procedure, shortened: as §1

Structure (SMILES) | IC50 [1] [nM] | IC50 [2] [nM] | IC50 [3] [nM]
CNC(=O)CN1CCC(c2ccc3[nH]c(-c4cn(C)c(=O)c(Cl)c4C)c(C(C)C)c3c2)CC1 [Example 153, 2-(4-(2-(5-chloro-1,4-dimethyl-6-oxo-1,6-dihydropyridin-3-yl)-3-isopropyl-1H-indol-5-yl)piperidin-1-yl)-N-methylacetamide] | 12.6 | 3.5 | 7880
Cc1c(-c2[nH]c3ccc(C4CCN(C(C)(C)C(N)=O)CC4)cc3c2C(C)C)cn(C)c(=O)c1Cl [Example 154, 2-(4-(2-(5-chloro-1,4-dimethyl-6-oxo-1,6-dihydropyridin-3-yl)-3-isopropyl-1H-indol-5-yl)piperidin-1-yl)-2-methylpropanamide] | 26.6 | 4.6 | 13800
CCNC(=O)CN1CCC(c2ccc3[nH]c(-c4cn(C)c(=O)c(Cl)c4C)c(C(C)C)c3c2)CC1 [Example 155, 2-(4-(2-(5-chloro-1,4-dimethyl-6-oxo-1,6-dihydropyridin-3-yl)-3-isopropyl-1H-indol-5-yl)piperidin-1-yl)-N-ethylacetamide] | 24.2 | 5.3 | 21100
Cc1c(-c2[nH]c3ccc(C4CCN(C(C)C(N)=O)CC4)cc3c2C(C)C)cn(C)c(=O)c1Cl (stereo not drawn) [Example 156, 2-(4-(2-(5-chloro-1,4-dimethyl-6-oxo-1,6-dihydropyridin-3-yl)-3-isopropyl-1H-indol-5-yl)piperidin-1-yl)propanamide] | 7.4 | 4.3 | 11800
CCc1c(-c2cn(C)c(=O)c(Cl)c2C)[nH]c2ccc(C3CCN(CC(=O)N(C)C)CC3)cc12 [Example 157, 2-(4-(2-(5-chloro-1,4-dimethyl-6-oxo-1,6-dihydropyridin-3-yl)-3-ethyl-1H-indol-5-yl)piperidin-1-yl)-N,N-dimethylacetamide] | 12.2 | 12.8 | 6390
Cc1c(-c2[nH]c3ccc(C4CCN(CC(=O)N(C)C)CC4)c(F)c3c2C(C)C)cn(C)c(=O)c1Cl [Example 158, 2-(4-(2-(5-chloro-1,4-dimethyl-6-oxo-1,6-dihydropyridin-3-yl)-4-fluoro-3-isopropyl-1H-indol-5-yl)piperidin-1-yl)-N,N-dimethylacetamide] | 2.6 | 6.6 | 3530
COCCn1cc(-c2[nH]c3ccc(C4CCN(CC(=O)N(C)C)CC4)cc3c2C(C)C)cc(C)c1=O [Example 159, 2-(4-(3-isopropyl-2-(1-(2-methoxyethyl)-5-methyl-6-oxo-1,6-dihydropyridin-3-yl)-1H-indol-5-yl)piperidin-1-yl)-N,N-dimethylacetamide] | 19.7 | 10.2 | 16600
CNC(=O)CN1CCC(c2ccc3[nH]c(-c4cc(C)c(=O)n(CCOC)c4)c(C(C)C)c3c2)CC1 [Example 160, 2-(4-(3-isopropyl-2-(1-(2-methoxyethyl)-5-methyl-6-oxo-1,6-dihydropyridin-3-yl)-1H-indol-5-yl)piperidin-1-yl)-N-methylacetamide] | 14.5 | 8.9 | 14700
CNC(=O)CN1CCC(c2ccc3[nH]c(-c4cc(C)c(=O)n(CC(C)C)c4)c(C(C)C)c3c2)CC1 [Example 161, 2-(4-(2-(1-isobutyl-5-methyl-6-oxo-1,6-dihydropyridin-3-yl)-3-isopropyl-1H-indol-5-yl)piperidin-1-yl)-N-methylacetamide] | 239 | 50.5 | 8730
CNC(=O)CN1CCC(c2ccc3[nH]c(-c4cc(C)c(=O)n(Cc5ccccc5)c4)c(C(C)C)c3c2)CC1 [Example 162, 2-(4-(2-(1-benzyl-5-methyl-6-oxo-1,6-dihydropyridin-3-yl)-3-isopropyl-1H-indol-5-yl)piperidin-1-yl)-N-methylacetamide] | 99.4 | 8.4 | 4120
Cc1cc(-c2[nH]c3ccc(C4CCN(CC(=O)N(C)C)CC4)cc3c2C(C)C)cn(CC(C)C)c1=O [Example 163, 2-(4-(2-(1-isobutyl-5-methyl-6-oxo-1,6-dihydropyridin-3-yl)-3-isopropyl-1H-indol-5-yl)piperidin-1-yl)-N,N-dimethylacetamide] | 118 | 12.3 | 3890
Cc1cc(-c2[nH]c3ccc(C4CCN(CC(=O)N(C)C)CC4)cc3c2C(C)C)cn(Cc2ccccc2)c1=O [Example 164, 2-(4-(2-(1-benzyl-5-methyl-6-oxo-1,6-dihydropyridin-3-yl)-3-isopropyl-1H-indol-5-yl)piperidin-1-yl)-N,N-dimethylacetamide] | 42.4 | 7 | 2560
Cc1cc(-c2[nH]c3ccc(C4CCN(CC(=O)N(C)C)CC4)cc3c2C(C)C)cn(CC(F)(F)F)c1=O [Example 165, 2-(4-(3-isopropyl-2-(5-methyl-6-oxo-1-(2,2,2-trifluoroethyl)-1,6-dihydropyridin-3-yl)-1H-indol-5-yl)piperidin-1-yl)-N,N-dimethylacetamide] | 113 | 45.8 | 10100
